How the values were obtained:
[1] = test system: C-reactive protein and pentraxins 2, 3; experiment: Plasma biomarkers, cytokine and adipokine proteome arrays; type: in vivo, C57BL/6 N mice; conditions: pooled plasma, oral treatment, htt94Q mice
Method: Plasma samples from wild-type and mutant huntingtin-expressing C57BL/6 N mice were pooled (n = 6 animals per group) and analyzed for cytokine and adipokine expression. The Proteome Profiler Mouse XL Cytokine Array and the Proteome Profiler Mouse Adipokine Array (R&D Systems) were used according to the manufacturer’s protocols to obtain protein expression profiles using 100 μl plasma samples. Spot density was determined using Quick Spots image analysis software (R&D Systems).
Supplementary file 40035_2019_148_MOESM5_ESM.pdf: Additional file 5: Effect of oral VCE-003.2 on plasmatic biomarkers. Plasma samples from the indicated groups of animals (n = 6) were pooled and subjected to mouse cytokine array (ARY028; R&D Systems) and mouse adipokine array (ARY013; R&D Systems) analysis. The relative expression of the indicated biomarkers is shown. (PDF 338 kb)

adipogenic = conditions: compared with full PPARγ-agonists; cited from earlier work
P19 cells = experiment: P19 neurosphere formation assay; type: cell-based, mouse; conditions: P19 cells cultured 24 h
Method: All reagents, unless indicated, were from Sigma-Aldrich (St. Louis, MO, USA). The synthesis and structure of VCE-003.2 were previously described. Mouse embryonic teratocarcinoma P19 were cultured in high-glucose DMEM (Invitrogen) supplemented with 10% fetal bovine serum and 1% penicillin/streptomycin. P19 cells were plated in 24-well plates and transfected with Lipofectamine 2000 reagent according to the manufacture’s protocol (Invitrogen). Twenty-four hours post transfection, cells were collected for RNA extraction or luciferase assay determinations. […] Twenty-four hours later the mean neurosphere size was quantified. […]
Fig. 2 VCE-003.2 exerts a pro-neurogenic effect in vitro. a-b Mouse embryonic stem cells (R1 line) were treated with Vehicle, VCE-003.2 (500 nM) during neural differentiation for 21 days. Representative immunofluorescence images and quantification of CTIP2- and doublecortin-positive cells is shown (n = 3). c Luciferase reporter assay of the A4-MARS sequence of the CTIP2 locus was performed 24 h after P19 cell transfection under neuronal differentiation conditions and subject to pharmacological regulation as above. d P19 neurosphere formation assay was performed by culturing the cells for 24 h in the presence of Vehicle or VCE-003.2. […]

[2] = test system: R1 mouse embryonic stem (mES) cell line; experiment: Mouse embryonic stem cell (R1) neural differentiation, CTIP2 and doublecortin immunofluorescence; type: cell-based; conditions: 500 nM during neural differentiation for 21 days, vs vehicle
Method: R1 mouse embryonic stem (mES) cell line was grown on gelatin 0.1%, in Knockout DMEM supplemented with 20% Knockout Serum Replacement, 1000 U ml-1 of LIF, 0.1 mM of non-essential amino acids, 2 mM ultraglutamine, 50 U ml-1 of penicillin and streptomycin and 0.1 mM of 2-mercaptoethanol. Cells were then differentiated at low density in Defined Default Medium (DDM) containing DMEM/F12 + GlutaMAX supplemented with N2 supplement (1×), 5 mM of Hepes Buffer, 0.1 mM of non-essential amino acids, 1 mM of sodium pyruvate, 2.5 mg ml-1 of AlbuMax-I, 30 mM of D-Glucose, 0.1 mM of non-essential amino acids, 0.1 mM of 2-mercaptoethanol, 50 U ml-1 of penicillin and streptomycin for 12 days. […]
Free floating coronal brain slices (30 μm) were processed as previously described. […] The lateral SVZ zone was delineated by using DAPI-counterstained cell nuclei, and analyses were performed in the upper dorsal tier, in which positively-labelled cells and immunoreactivity were quantified not beyond 100 μm of the SVZ. Confocal fluorescence images were acquired by using LAS-X software (Wetzlar, Germany) and SP8 microscope with 2 passes by Kalman filter, a 1024X1024 collection box, and pinhole AU 1. […] Cells were quantified within a 20 × 20 μm counting frame, which randomly sampled within a 122.8 × 68.9 μm counting grid. […]

## CCCCCC1=C(NCC)C(=O)C(CC=C(C)CCC=C(C)C)=C(O)C1=O [VCE-003.2, 2-(3,7-dimethyl-octa-2,6-dienyl)-6-ethylamino-3-hydroxy-5-pentyl-(1,4) benzoquinone]
[1]
  plasma neuroinflammation biomarkers increased by htt94Q (C-reactive protein, pentraxins 2, 3): reverted
adipogenic
  adipogenic effect: less adipogenic
P19 cells
  mean neurosphere size: 367.90 ± 15.20 μm
[2]
  doublecortin immunoreactivity: increased
  number of CTIP2-positive cells: increased the number of CTIP2-positive cells

— paper PMC6407204, “Oral administration of the cannabigerol derivative VCE-003.2 promotes subventricular zone neurogenesis and protects against mutant huntingtin-induced neurodegeneration” (Translational Neurodegeneration, 2019)
